The target of test [1] is human emopamil binding protein and human 7-dehydrocholesterol reductase co-expressing cells (hEBP-DHCR7 membrane) (Homo sapiens (Human), UniProt Q15125). Kind of test: Radioligand filter binding assay on hEBP-DHCR7 membrane. To be noted: [3H]-(S)-6-(2-Methyl-3-(6-(trifluoromethyl)pyridin-3-yl)propyl)-2-thia-6-azaspiro[3.4]octane 2,2-dioxide radioligand, HEK293 membrane co-expressing hEBP and hDHCR7. The protocol:
Membrane Preparation: human emopamil binding protein and human 7-dehydrocholesterol reductase co-expressing cells were generated by transient transfecting host human embryonic kidney (HEK) 293 cells with 2 DNA constructs containing each protein's coding sequence. Cells were suspension cultured at 37° C. with 5% CO2 in […] 293 Expression Medium (Thermofisher). Whole cell membrane was prepared by harvesting the cell pellet, adding cold membrane buffer (50 mM Tris, pH7.5, lx Roche COMPLETE EDTA-free protease inhibitor cocktail) 10 times volume of the cell pellets weight, lysing cell pellet on ice by using Dounce homogenizer, spinning at 200 g 4° C. for 15 min, collecting supernatant and spinning again at 25000 g 4° C. for 50 min, transferring pellet to Dounce homogenizer, re-suspending pellet by homogenizing in membrane buffer on ice to reach ˜25 mg/mL, then keeping whole cell membrane aliquots at −80° C.
Compounds were prepared in a 96-well U bottom plate using an Echo550 machine and 10 mM compound DMSO stock solution, followed by an 8-dose 5-fold serial dilutions protocol with final testing compound concentration ranging from 0.06 to 5000 nM, with DMSO back fill to 100 nL/well and n=2. […] The UniFilter-96 GF/B plates were pre-treated by adding 50 μl/well of 0.3% (v/v) PEI to UniFilter-96 GF/B plates. The plates were sealed and incubated at 4° C. for 3 hrs. Then, the plates were washed with ice-cold assay buffer 3 times. The radioligand binding assay was prepared by adding assay buffer diluted hEBP-DHCR7 membrane at 66.7 μg/ml×150 μl/well into the 96-well compound plate to reach 10 μg membrane per well. Then, the assay buffer diluted [3H]—(S)-6-(2-Methyl-3-(6-(trifluoromethyl)pyridin-3-yl)propyl)-2-thia-6-azaspiro[3.4] octane 2,2-dioxide was added at 25 nM×50 μl/well. Following this, the plate was centrifuged at 1000 rpm for 30 secs. The plate was then sealed and agitated at 600 rpm at 22° C. for 5 min, and then incubated at 22° C. for 3 hrs. The incubation was stopped by transferring the binding solution to the pre-treated UniFilter-96 GF/B plate, vacuum filtrated, and then washed four times with ice-cold assay buffer. Following this, the plates were dried at 37° C. for 45 min. The plates were then sealed at the bottom. 40 μl/well of scintillation cocktail was added to the plates. A MicroBeta2 microplate counter was then used to read the plate and analyze the data. For reference and test compounds, the results are expressed as % Inhibition, using the normalization equation: N=100−100×(U−C2)/(C1−C2), where U is the unknown value, C1 is the average of high controls, and C2 is the average value of low controls. The IC50 was determined by fitting percentage of inhibition as a function of compound concentrations with Hill equation using XLfit. Results are expressed as hEBP-DHCR7 Ki (uM) in Table 4. Ki was calculated as described above. The asterix (*) indicates an isolated isomer or isolated group of isomers, but that the stereochemistry has not been assigned.

For test [2], the system named is EBP (zymostenol accumulation in EpiSC-derived OPCs). Kind of test: GC/MS-based sterol profiling, zymostenol accumulation in OPCs. Format: cell-based, mouse. Particulars: Mus musculus, 24 h, EpiSC-derived OPCs, 24 hr treatment, 8 doses from 0.15 nM to 333 nM; read-out: Zymostenol GCMS EC50. The protocol: To assess effects of treatments on OPCs, all treatments were assayed in two or more independent platings of epiblast stem cell-derived OPCs ([…]-derived OPCs were obtained using in vitro differentiation protocols and culture conditions described previously (Najm et al, 2011, Nature Methods). OPCs were expanded and frozen down in aliquots. OPCs were thawed into growth conditions for at least one passage before use in further assays. Sterols were monitored using a modified Folch wash protocol (Hubler et al, 2018, Nature). EpiSC-derived OPCs were plated at 100,000 cells per well in PO- and laminin-coated 96-well plates in N2B27 media without growth factors. After 24 hours, cells were rinsed with saline and plates were frozen. Cholesterol-d7 standard was then added to each well before drying under nitrogen stream and derivatization with 55 μl of bis(trimethylsilyl) trifluoroacetamide. After derivatization, 2 μl were analyzed by gas chromatography/mass spectrometry using an Agilent 5973 Network Mass Selective Detector equipped with a 6890 gas chromatograph system and a HP-5MS capillary column (30 m×0.25 mm×0.25 mm). Samples were analyzed in full scan mode using electron impact ionization; ion fragment peaks were integrated to calculate sterol abundance, and quantitation was relative to cholesterol-d7. […] All standards were obtained from Avanti Polar Lipids unless otherwise indicated. Calibration curves were generated by injecting varying concentrations of sterol standards and maintaining a fixed amount of cholesterol-D7. For normalized zymostenol accumulation results, the total amount of zymostenol measured after drug treatment was divided by the total amount of zymostenol accumulated after 24 hr treatment with 100 nM positive control reference.

human emopamil binding protein and human 7-dehydrocholesterol reductase co-expressing cells (hEBP-DHCR7 membrane), sequence (Q15125 whole entry): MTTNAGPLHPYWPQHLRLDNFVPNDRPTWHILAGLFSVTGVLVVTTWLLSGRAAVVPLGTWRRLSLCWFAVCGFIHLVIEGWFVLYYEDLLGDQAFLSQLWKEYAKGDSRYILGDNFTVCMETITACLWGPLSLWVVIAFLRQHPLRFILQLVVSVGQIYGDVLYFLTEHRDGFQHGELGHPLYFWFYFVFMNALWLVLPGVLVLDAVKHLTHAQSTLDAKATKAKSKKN

By Ki is commonly meant the dissociation constant of the complex between target and ligand, obtained from inhibition or displacement. Low values mean a stronger hold on the target, high ones a looser hold on the target. As usually defined, the EC50 is the midpoint of the concentration-response curve. In turn, `O=S1(=O)CCC2(CCN([C@H]3CC[C@@H](c4ccc(C(F)(F)F)cn4)CC3)C2)CC1` [84A*, 2-((1r,4r)-4-(5-(Trifluoromethyl)pyridin-2-yl)cyclohexyl)-8-thia-2-azaspiro[4.5]decane 8,8-dioxide] registered a Ki in test [1] of 310 nM. In test [2], the EC50 is 100 nM.
The matching figures for `O=S1(=O)CC2(CCN([C@H]3CC[C@@H](c4ncc(C(F)(F)F)cc4Cl)CC3)C2)C1` [Compound 48B, 6-((1s,4s)-4-(3-chloro-5-(trifluoromethyl)pyridin-2-yl)cyclohexyl)-2-thia-6-azaspiro[3.4]octane 2,2-dioxide]: 9.6 nM and 14 nM.
In test [1], `Cc1nc(C(F)(F)F)ccc1[C@H]1CC[C@@H](N2CCC3(C2)CS(=O)(=O)C3)CC1` [Compound 51B, 6-((1s,4s)-4-(2-methyl-6-(trifluoromethyl)pyridin-3-yl)cyclohexyl)-2-thia-6-azaspiro[3.4]octane 2,2-dioxide] had an inhibition constant (Ki) of 14 nM. The EC50 in test [2] is 5.9 nM.
Compound `O=S1(=O)CC2(CCN([C@H]3CC[C@@H](c4ccnc(C(F)(F)F)c4)CC3)C2)C1` [Compound 60B, 6-((1s,4s)-4-(2-(trifluoromethyl)pyridin-4-yl)cyclohexyl)-2-thia-6-azaspiro[3.4]octane 2,2-dioxide] yielded a Ki in test [1] of 21 nM. Also, in test [2], the EC50 came to 85 nM.
`O=S1(=O)CC2(CCN([C@H]3CC[C@@H](c4cccc(C(F)(F)F)n4)CC3)C2)C1` [Compound 62A, 6-((1s,4s)-4-(6-(trifluoromethyl)pyridin-2-yl)cyclohexyl)-2-thia-6-azaspiro[3.4]octane 2,2-dioxide] returned a Ki in test [1] of 23 nM. Moreover, in test [2], the EC50 was determined as 45 nM.
The matching figures for `O=S1(=O)CC2(CCN([C@H]3CC[C@H](c4cncc(C(F)(F)F)c4)CC3)C2)C1` [Compound 63A, 6-((1r,4r)-4-(5-(trifluoromethyl)pyridin-3-yl)cyclohexyl)-2-thia-6-azaspiro[3.4]octane 2,2-dioxide]: 75 nM and 12 nM.
In the case of `O=S1(=O)CC2(CCN([C@H]3CC[C@@H](c4cncc(C(F)(F)F)c4)CC3)C2)C1` [Compound 63B, 6-((1s,4s)-4-(5-(trifluoromethyl)pyridin-3-yl)cyclohexyl)-2-thia-6-azaspiro[3.4]octane 2,2-dioxide], the Ki in test [1] amounted to 66 nM. For the same compound, the EC50 in test [2] worked out at 289 nM.
The matching figures for `CCc1nc(C(F)(F)F)ccc1[C@H]1CC[C@@H](N2CCC3(C2)CS(=O)(=O)C3)CC1` [Compound 64B, 6-((1s,4s)-4-(2-ethyl-6-(trifluoromethyl)pyridin-3-yl)cyclohexyl)-2-thia-6-azaspiro[3.4]octane 2,2-dioxide]: 12 nM and 3.2 nM.
The matching figures for `CC(C)c1nc(C(F)(F)F)ccc1[C@H]1CC[C@@H](N2CCC3(C2)CS(=O)(=O)C3)CC1` [Compound 65B, 6-((1s,4s)-4-(2-isopropyl-6-(trifluoromethyl)pyridin-3-yl)cyclohexyl)-2-thia-6-azaspiro[3.4]octane 2,2-dioxide]: 8 nM and 2.8 nM.
The compound `O=S1(=O)CC2(CCN([C@H]3CC[C@H](c4ccc(C(F)F)nc4)CC3)C2)C1` [Compound 67, 6-((1r,4r)-4-(6-(difluoromethyl)pyridin-3-yl)cyclohexyl)-2-thia-6-azaspiro[3.4]octane 2,2-dioxide] registered a Ki in test [1] of 180 nM. The 50% effective concentration (EC50) in test [2] came out at 30 nM.
As for `O=S1(=O)CC2(CCN([C@H]3CC[C@@H](c4ccc(F)c(F)c4)CC3)C2)C1` [Compound 70B, 6-((1s,4s)-4-(3,4-difluorophenyl)cyclohexyl)-2-thia-6-azaspiro[3.4]octane 2,2-dioxide], the Ki in test [1] worked out at 6.7 nM. Also, the concentration for a half-maximal effect (EC50) in test [2] is 19 nM.
The corresponding values for `O=S1(=O)CC2(CCN([C@H]3CC[C@@H](c4cnc(C(F)(F)F)c(F)c4)CC3)C2)C1` [Compound 72B, 6-((1s,4s)-4-(5-fluoro-6-(trifluoromethyl)pyridin-3-yl)cyclohexyl)-2-thia-6-azaspiro[3.4]octane 2,2-dioxide] are 26 nM and 59 nM.
As to `O=S1(=O)CC2(CCN([C@H]3CC[C@H](c4ncc(C(F)(F)F)cc4F)CC3)CC2)C1` [Compound 80A, 7-((1r,4r)-4-(3-Fluoro-5-(trifluoromethyl)pyridin-2-yl)cyclohexyl)-2-thia-7-azaspiro[3.5] nonane 2,2-dioxide], the Ki in test [1] is 67 nM. For the same compound, the concentration for a half-maximal effect (EC50) in test [2] stood at 11 nM.
The matching figures for `CC(C)(C)n1nc(C(F)(F)F)cc1[C@H]1CC[C@H](N2CCC3(CC2)CS(=O)(=O)C3)CC1` [Compound 85A, 7-((1r,4r)-4-(1-(tert-Butyl)-3-(trifluoromethyl)-1H-pyrazol-5-yl)cyclohexyl)-2-thia-7-azaspiro[3.5]nonane 2,2-dioxide]: 15 nM and 8.1 nM.
On to `O=S1(=O)CC2(CCN([C@H]3CC[C@H](c4ccnc(C(F)(F)F)c4)CC3)CC2)C1` [Compound 90B, 7-((1r,4r)-4-(2-(trifluoromethyl)pyridin-4-yl)cyclohexyl)-2-thia-7-azaspiro[3.5]nonane 2,2-dioxide], for which affinity in test [1] was put at a Ki of 1290 nM. Besides, the half-maximal effective concentration (EC50) in test [2] was 42 nM.
The compound `O=S1(=O)CC2(CCN([C@H]3CC[C@H](c4cnc(C(F)(F)F)nc4)CC3)C2)C1` [Compound 94A, 6-((1r,4r)-4-(2-(Trifluoromethyl)pyrimidin-5-yl)cyclohexyl)-2-thia-6-azaspiro[3.4]octane 2,2-dioxide] yielded an inhibition constant Ki in test [1] of 230 nM. The 50% effective concentration (EC50) in test [2] is 81 nM.
`O=S1(=O)CC2(CCN([C@H]3CC[C@@H](c4cnc(C(F)(F)F)nc4)CC3)C2)C1` [Compound 94B, 6-((1s,4s)-4-(2-(trifluoromethyl)pyrimidin-5-yl)cyclohexyl)-2-thia-6-azaspiro[3.4]octane 2,2-dioxide] had a Ki in test [1] of 115 nM. For the same compound, the EC50 in test [2] came to 250 nM.

The values are drawn from patent US20240398781A1, “SPIROCYCLIC CYCLIC MODULATORS OF CHOLESTEROL BIOSYNTHESIS AND THEIR USE FOR PROMOTING REMYELINATION” (GENENTECH, INC., priority 2021, published 2024).
